Experimental data taken from patent US8546320B2, “Hsp9O-targeted anti-cancer chimeric peptide” (Kyoto University, priority 2008, dated 2013).

Assays:
HEK293 = assay: cells; type: cell-based, human; settings: Normal cell HEK; read-out: Anti-tumor activity, IC50 (μM) ± SD
Experimental: (§1) A total of 3×10^3 cells were inoculated per well on a 96 well plate and cultured in a medium containing 10% FBS for 24 hours, and incubated with 100 μl of a peptide having a gradual increase in concentration at 37° C. for 48 to 72 hours. The survival rate of the cells was measured by using WST-8 solution (Cell Count Reagent SF; Nacalai Tesque, Inc.).
(§2) A total of 3×10^3 cells per well were inoculated onto a 96 well plate, and incubated in a medium containing 10% FBS with 100 μl of a peptide diluted stepwise at 37° C. for 48 to 72 hours. The survival rate of the cells was measured by using WST-8 solution (Cell Count Reagent SF; Nacalai Tesque, Inc.).

U937 [1] = assay: cells; type: cell-based, human
Experimental: as §2

MRC-5 = type: cell-based, human; settings: Normal cell MRC5; read-out: Anti-tumor activity, IC50 (μM) ± SD
Experimental: as §1

T47D = type: cell-based, human; settings: Breast cancer T47D; read-out: Anti-tumor activity, IC50 (μM) ± SD
Experimental: as §1

Caki-1 [2] = type: cell-based, human; settings: Caki-1, 68 μM
Experimental: The TPR peptide or the TPR scramble peptide was mixed with a commercially available transfection reagent (Profect-P2 or, Lipofectamine LTX) and the mixture was left to incubate at room temperature for 20 minutes, to form liposome before the complex was added to cancer cells (Caki-1 (kidney cancer cells)); the survival rate of the cells was then measured by using WST-8 solution (Cell Count Reagent SF; Nacalai Tesque, Inc.) and the results were compared with those such as in the case of the TPR scramble peptide or the liposome alone.

BXPC-3 = type: cell-based, human; settings: Pancreatic cancer Bxpc3; read-out: Anti-tumor activity, IC50 (μM) ± SD
U937 [3] = assay: Penetration experiment, confocal microscope, U937; type: cell-based, human; settings: U937, TAMRA-labeled peptide 10 μM, 1 hour
Experimental: TPR-TAMRA (TAMRA labeled body) or Antp-TPR-TAMRA (TAMRA labeled body) was added to 1×10^6 peripheral blood mononuclear cells (PBMCs), which were prepared from U937 cells, a mouse leukemia cell strain EL4 or mouse peripheral blood, at a final concentration of 10 μM, and the mixture was cultured for 1 hour. The peptide incorporated in the cell or influx of the medium into the cell after peptide penetration was observed under a confocal microscope (Olympus FV1000 (Olympus)), using a medium containing calcein.
TPR-TAMRA (TAMRA labeled body) or Antp-TPR-TAMRA (TAMRA labeled body) was added to 1×10^6 U937 cells to a final concentration of 10 μM; the mixture was cultured for one hour; and then the behavior of the peptide incorporated into the cell or the influx of the medium into the cell after peptide penetration was observed under a confocal microscope (Olympus FV1000 (Olympus)), using a calcein-containing medium.

[4] = target: T1, interaction between Hsp90 and the Hop's TPR2A domain (Homo sapiens, UniProt P07900); assay: BIACORE competition: Hsp90 pre-mixed with peptide, added to immobilized TPR2A; type: binding; settings: for Binding of Hsp90 (%): to immobilized TPR2A
T1 construct: histidine tag; made in house; host or cells: Hsp90: E. coli BL21 (pDEST17-Hsp90)
From the text: It was examined whether the TPR peptide designed could compete specifically with the interaction between Hsp90, which is essential for the accurate folding of some carcinogenic protein including survivin in cancer cells, and the Hop's TPR2A domain.

LNCap = type: cell-based, human; settings: Prostate cancer LNcap; read-out: Anti-tumor activity, IC50 (μM) ± SD
Caki-1 [5] = type: cell-based, human; settings: Kidney cancer Caki-1; read-out: Anti-tumor activity, IC50 (μM) ± SD

IC50 (T47D): > 352 µM
IC50 (BXPC-3): > 352 µM
Binding of Hsp90 (%) ([4]; peptide 1.411 μM): 88.19%
Binding of Hsp90 (%) ([4]; peptide 14.11 μM): 84.60%
Binding of Hsp90 (%) ([4]; peptide 141.1 μM): 72.26%
Binding of Hsp90 (%) ([4]; peptide 282.2 μM): 29.75%
Binding of Hsp90 (%) ([4]; peptide 705.5 μM): 0%
IC50 (LNCap): > 352 µM
IC50 (Caki-1 [5]): > 352 µM
Compound: CC[C@H](C)[C@H](NC(=O)[C@H](CCCNC(=N)N)NC(=O)[C@H](C)NC(=O)[C@H](Cc1ccc(O)cc1)NC(=O)[C@H](C)NC(=O)[C@@H](N)CCCCN)C(=O)NCC(=O)N[C@@H](CC(N)=O)C(=O)N[C@@H](CO)C(=O)N[C@@H](Cc1ccc(O)cc1)C(=O)N[C@@H](Cc1ccccc1)C(=O)N[C@@H](CCCCN)C(=O)O [TPR]
IC50 (HEK293): > 352 µM
Cell Survival Rate (%) (U937 [1]): 92.79%
Anti-cancer activity (% relative to wild-type peptide) (U937 [1]; U937, wild-type peptide = 100%): 9.39%
Decrease in cell survival rate (% relative to wild-type peptide) (U937 [1]; U937, wild-type peptide = 100%): 25.04%
IC50 (MRC-5): > 352 µM
killing effect after introduction with transfection reagent (Caki-1 [2]): observed when the TPR peptide was introduced
intracellular penetration (U937 [3]): did not penetrate into the cell
inhibition of the interaction between Hsp90 and TPR2A ([4]; increasing peptide concentration): exerts an influence on the interaction between Hsp90 and TPR2A
